Data on 21 compounds can be found in ChEMBL document CHEMBL3608254, “Discovery of novel triazolobenzazepinones as γ-secretase modulators with central Aβ42 lowering in rodents and rhesus monkeys” (Bioorg Med Chem Lett, 2015).

The subject of one series is Rattus norvegicus. Nature of the series: Antialzheimer's disease activity in po dosed Sprague-Dawley rat assessed as reduction of amyloid beta-40/42 level in brain measured after 6 hrs. The series is classed as functional.
In series [1] the target is Gamma-secretase. Nature of the series: Inhibition of gamma-secretase in human SH-SY5Y cells expressing beta-APP C-terminal fragment SPA4CT assessed as decrease of amyloid beta-42 level by electrochemiluminescent method. The series is classed as cell-based.
The subject of the next series is Mus musculus. Nature of the series: Antialzheimer's disease activity in po dosed APP-YAC transgenic mouse assessed as reduction of amyloid beta-40/42 level in brain measured after 6 hrs. The series is classed as functional.
Series [2] in a line: Inhibition of gamma-secretase-mediated cleavage of NotchdeltaE in human HeLa cells expressing NotchdeltaE assessed as intracellular release of Notch intracellular domain (NICD)/N-terminal luciferase by luminescent method. In kind it is cell-based.
The target in series [3] is Gamma-secretase. Nature of the series: Inhibition of gamma-secretase in human SH-SY5Y cells expressing beta-APP C-terminal fragment SPA4CT assessed as decrease of amyloid beta-40 level by electrochemiluminescent method. The series is classed as cell-based.
Series [4] deals with Voltage-gated inwardly rectifying potassium channel KCNH2 (Homo sapiens, UniProt Q12809).
Description: Binding affinity to human ERG expressed in HEK cells by MK-499 radioligand displacement assay
A short description of series [5]: Half life in rat liver microsomes. The series is classed as ADME.
Series [6] deals with Sodium-dependent serotonin transporter (Homo sapiens, UniProt P31645). Nature of the series: Inhibition of SERT (unknown origin).

Activity calls are given as the source filed them. The rule behind the calls is not given here. Some results are limits rather than exact numbers.

Chain of Voltage-gated inwardly rectifying potassium channel KCNH2 (Q12809 whole entry): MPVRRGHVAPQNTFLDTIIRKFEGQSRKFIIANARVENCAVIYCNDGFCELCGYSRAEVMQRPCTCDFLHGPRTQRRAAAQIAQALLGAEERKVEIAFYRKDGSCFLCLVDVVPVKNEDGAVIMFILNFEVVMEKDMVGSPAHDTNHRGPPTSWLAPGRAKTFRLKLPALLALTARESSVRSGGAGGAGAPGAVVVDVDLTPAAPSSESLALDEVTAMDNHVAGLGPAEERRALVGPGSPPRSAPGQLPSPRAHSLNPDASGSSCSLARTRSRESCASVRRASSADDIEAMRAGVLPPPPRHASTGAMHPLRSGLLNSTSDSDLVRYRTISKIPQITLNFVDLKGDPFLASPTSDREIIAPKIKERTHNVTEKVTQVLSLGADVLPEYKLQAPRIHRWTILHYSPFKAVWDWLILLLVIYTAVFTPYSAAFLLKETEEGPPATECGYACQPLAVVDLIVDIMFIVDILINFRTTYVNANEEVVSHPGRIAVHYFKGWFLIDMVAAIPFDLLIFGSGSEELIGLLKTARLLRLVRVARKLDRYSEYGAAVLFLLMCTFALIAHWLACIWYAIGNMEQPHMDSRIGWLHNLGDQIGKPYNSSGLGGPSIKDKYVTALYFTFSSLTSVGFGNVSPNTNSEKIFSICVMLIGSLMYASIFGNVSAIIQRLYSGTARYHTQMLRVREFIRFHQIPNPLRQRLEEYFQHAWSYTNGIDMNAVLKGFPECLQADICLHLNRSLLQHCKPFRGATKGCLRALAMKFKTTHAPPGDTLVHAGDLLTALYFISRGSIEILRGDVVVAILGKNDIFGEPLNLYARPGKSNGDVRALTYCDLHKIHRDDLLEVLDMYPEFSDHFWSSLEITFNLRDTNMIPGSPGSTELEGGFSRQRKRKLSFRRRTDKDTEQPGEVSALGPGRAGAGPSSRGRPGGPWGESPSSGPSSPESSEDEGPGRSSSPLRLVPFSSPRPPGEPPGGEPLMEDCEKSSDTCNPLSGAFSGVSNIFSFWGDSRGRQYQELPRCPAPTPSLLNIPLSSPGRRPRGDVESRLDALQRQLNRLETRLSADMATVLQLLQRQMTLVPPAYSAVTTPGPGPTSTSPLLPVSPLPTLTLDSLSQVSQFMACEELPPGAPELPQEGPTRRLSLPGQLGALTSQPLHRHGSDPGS
Chain of Sodium-dependent serotonin transporter (P31645 whole entry, looked up): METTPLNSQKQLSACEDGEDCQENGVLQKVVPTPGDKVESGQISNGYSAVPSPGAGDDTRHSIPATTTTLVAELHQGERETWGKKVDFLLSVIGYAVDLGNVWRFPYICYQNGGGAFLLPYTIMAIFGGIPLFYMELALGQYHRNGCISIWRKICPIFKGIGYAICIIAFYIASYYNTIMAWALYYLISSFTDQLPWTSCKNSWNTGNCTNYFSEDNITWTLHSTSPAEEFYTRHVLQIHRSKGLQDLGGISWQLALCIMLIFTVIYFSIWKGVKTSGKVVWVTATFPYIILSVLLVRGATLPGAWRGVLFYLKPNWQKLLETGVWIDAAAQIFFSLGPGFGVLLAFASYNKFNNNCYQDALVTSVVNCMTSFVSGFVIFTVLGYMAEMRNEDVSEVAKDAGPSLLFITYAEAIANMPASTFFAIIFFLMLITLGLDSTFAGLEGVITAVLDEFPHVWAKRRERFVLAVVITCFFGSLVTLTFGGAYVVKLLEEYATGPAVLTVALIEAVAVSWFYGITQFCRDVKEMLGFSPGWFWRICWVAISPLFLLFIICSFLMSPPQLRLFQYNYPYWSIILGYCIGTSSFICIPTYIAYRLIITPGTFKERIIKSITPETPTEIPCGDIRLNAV

As for `COc1cc(-c2cn(C3CCc4cccnc4N(CC(F)(F)F)C3=O)nn2)ccc1-n1cnc(C)c1` (centres undefined), the outcome in the series on Rattus norvegicus and with Mus musculus was Active. The half-maximal inhibitory concentration (IC50) at Gamma-secretase [1] was 180 nM; in series [2], greater than 50 µM; on Gamma-secretase [3], 1340 nM; in series [4], 8.74 µM.

With `COc1cc(-c2cn(C3CCc4ccccc4N(CC(F)F)C3=O)nn2)ccc1-n1cnc(C)c1` (centres undefined), the IC50 on Gamma-secretase [1] is 150 nM; in series [2], greater than 50 µM; on Gamma-secretase [3], 700 nM.

With `COc1cc(-c2cn(C3CCc4ccccc4N(C)C3=O)nn2)ccc1-n1cnc(C)c1` (centres undefined), the values for the concentration for half-maximal inhibition (IC50) (at Gamma-secretase [1]; in series [2]; on Gamma-secretase [3]) were 430 nM, greater than 50 µM and 3080 nM, respectively.

`COc1cc(-c2cn(C3CCc4ccccc4N(CC4(C)COC4)C3=O)nn2)ccc1-n1cnc(C)c1` (racemic): the half-inhibitory concentration (IC50) on Gamma-secretase [1] is 1250 nM; in series [2] it was greater than 50 µM; at Gamma-secretase [3], 7480 nM.

Turning to `COc1cc(-c2cn(C3CCc4c(ccc5ccccc45)N(CC(F)(F)F)C3=O)nn2)ccc1-n1cnc(C)c1` (centres undefined), the outcome with Rattus norvegicus and in the series with Mus musculus was Active. In addition, the 50% inhibitory concentration (IC50) was 30 nM at Gamma-secretase [1], greater than 50 µM in series [2] and 70 nM at Gamma-secretase [3].

As to `COc1cc(-c2cn(C3CCc4cc(F)ccc4N(CC(F)(F)F)C3=O)nn2)ccc1-n1cnc(C)c1` (centres undefined), the result with Rattus norvegicus and in the series with Mus musculus was Active. Also, the concentration for half-maximal inhibition (IC50) at Gamma-secretase [1] came out at 40 nM; in series [2] it was 34.1 µM; at Gamma-secretase [3] it was 190 nM; in series [4], 2.68 µM.

For `COc1cc(-c2cn(C3CCc4ccccc4N(Cc4cccnc4)C3=O)nn2)ccc1-n1cnc(C)c1` (racemic), the IC50 was 880 nM at Gamma-secretase [1], greater than 50 µM in series [2] and 4690 nM on Gamma-secretase [3].

Take `COc1cc(-c2cn(C3CSc4ccccc4N(CC(F)(F)F)C3=O)nn2)ccc1-n1cnc(C)c1` (centres undefined): the result in the series on Rattus norvegicus and with Mus musculus was Active. Further, the half-maximal inhibitory concentration (IC50) on Gamma-secretase [1] turned out to be 60 nM; in series [2], 28.4 µM; at Gamma-secretase [3] it was 240 nM; in series [4], 4.75 µM.

`COc1cc(-c2cn(C3CCc4ccccc4N(Cc4ccccc4)C3=O)nn2)ccc1-n1cnc(C)c1` (racemic): the IC50 at Gamma-secretase [1] is 240 nM; in series [2], greater than 50 µM; on Gamma-secretase [3], 2010 nM.

For the compound `COc1cc(-c2cn(C3(C)CCc4ccccc4N(CC(F)(F)F)C3=O)nn2)ccc1-n1cnc(C)c1` (centres undefined), the result in the series with Rattus norvegicus and in the series on Mus musculus was Active. In addition, the IC50 on Gamma-secretase [1] was 580 nM; in series [2], greater than 50 µM; at Gamma-secretase [3], 6380 nM; in series [4], 6 µM.

As to `COc1cc(-c2cn(C3CCc4c(F)cc(F)cc4N(CC(F)(F)F)C3=O)nn2)ccc1-n1cnc(C)c1` (centres undefined), the outcome with Rattus norvegicus and in the series with Mus musculus was Active. For the same compound, the results for the IC50 (on Gamma-secretase [1]; in series [2]; on Gamma-secretase [3]) were 40 nM, greater than 50 µM and 150 nM, respectively.

As to `COc1cc(-c2cn([C@H]3C[C@H](C)c4ccccc4N(CC(F)(F)F)C3=O)nn2)ccc1-n1cnc(C)c1`, the result with Rattus norvegicus and with Mus musculus was Active. Further, the IC50 on Gamma-secretase [1] turned out to be 40 nM; in series [2], 36.6 µM; on Gamma-secretase [3], 170 nM; in series [4], 6.68 µM. In series [5], this compound displayed a half-life of 72 min.

For `COc1cc(-c2cn(C3CCc4ccccc4N(Cc4ccccn4)C3=O)nn2)ccc1-n1cnc(C)c1` (racemic), the IC50 is 1080 nM on Gamma-secretase [1], greater than 50 µM in series [2] and 5400 nM at Gamma-secretase [3].

On to `COc1cc(-c2cn(C3CCc4ncccc4N(CC(F)(F)F)C3=O)nn2)ccc1-n1cnc(C)c1` (centres undefined), for which the result with Rattus norvegicus and in the series with Mus musculus was Active. Further, the IC50 at Gamma-secretase [1] was 150 nM; in series [2] it was 41.8 µM; on Gamma-secretase [3], 940 nM; in series [4] it was greater than 50 µM. Besides, the inhibition entry in series [6] is “inactive”.

Consider `COc1cc(-c2cn(C3CCc4ccccc4N(CC4CC4)C3=O)nn2)ccc1-n1cnc(C)c1` (centres undefined), for which the 50% inhibitory concentration (IC50) on Gamma-secretase [1] came out at 370 nM; in series [2], 25.6 µM; on Gamma-secretase [3] it was 3980 nM.

Regarding `COc1cc(-c2cn(C3CCc4ccccc4N(CC(F)(F)F)C3=O)nn2)ccc1-n1cnc(C)c1` (centres undefined), the concentration for half-maximal inhibition (IC50) on Gamma-secretase [1] is 70 nM; in series [2], greater than 50 µM; on Gamma-secretase [3] it was 320 nM. This compound came in with a half-life in series [5] of 35 min.

On to `COc1cc(-c2cn(C3CCc4ccccc4N(CCF)C3=O)nn2)ccc1-n1cnc(C)c1` (centres undefined), for which the half-inhibitory concentration (IC50) on Gamma-secretase [1] is 440 nM; in series [2] it was greater than 50 µM; at Gamma-secretase [3], 3140 nM.

As for `COc1cc(-c2cn(C3CCc4c(ccc(Br)c4F)N(CC(F)(F)F)C3=O)nn2)ccc1-n1cnc(C)c1` (centres undefined), the outcome with Rattus norvegicus and in the series on Mus musculus was Active. For the same compound, the IC50 was 10 nM on Gamma-secretase [1], greater than 50 µM in series [2], 50 nM at Gamma-secretase [3] and 0.53 µM in series [4].

As for `COc1cc(-c2cn(C3CCc4ccccc4NC3=O)nn2)ccc1-n1cnc(C)c1` (centres undefined), the half-maximal inhibitory concentration (IC50) on Gamma-secretase [1] was determined as 390 nM; in series [2], 33 µM; at Gamma-secretase [3], 4720 nM.

For the compound `COc1cc(-c2cn(C3CCc4ccccc4N(Cc4ccncc4)C3=O)nn2)ccc1-n1cnc(C)c1` (racemic), the 50% inhibitory concentration (IC50) at Gamma-secretase [1] was 1190 nM; in series [2], greater than 50 µM; on Gamma-secretase [3] it was 6750 nM.

Consider `COc1cc(-c2cn(C3CC[C@@H]4CCCC[C@H]4N(Cc4ccccc4)C3=O)nn2)ccc1-n1cnc(C)c1` (some centres undefined), for which the result with Rattus norvegicus and in the series on Mus musculus was Active. Besides, the results for the IC50 (on Gamma-secretase [1]; in series [2]; on Gamma-secretase [3]) were 70 nM, greater than 50 µM and 470 nM, respectively. Moreover, in series [6], the inhibition result was “inactive”.
